The source of these data is patent publication US9353084B2, “2-amino 3,5,5-trifluoro-3,4,5,6-tetrahydropyridines as BACE1 inhibitors for treatment of Alzheimer's disease” (H. Lundbeck A/S, priority 2014, dated 2016).

human BACE1, sequence (P56817 46-501): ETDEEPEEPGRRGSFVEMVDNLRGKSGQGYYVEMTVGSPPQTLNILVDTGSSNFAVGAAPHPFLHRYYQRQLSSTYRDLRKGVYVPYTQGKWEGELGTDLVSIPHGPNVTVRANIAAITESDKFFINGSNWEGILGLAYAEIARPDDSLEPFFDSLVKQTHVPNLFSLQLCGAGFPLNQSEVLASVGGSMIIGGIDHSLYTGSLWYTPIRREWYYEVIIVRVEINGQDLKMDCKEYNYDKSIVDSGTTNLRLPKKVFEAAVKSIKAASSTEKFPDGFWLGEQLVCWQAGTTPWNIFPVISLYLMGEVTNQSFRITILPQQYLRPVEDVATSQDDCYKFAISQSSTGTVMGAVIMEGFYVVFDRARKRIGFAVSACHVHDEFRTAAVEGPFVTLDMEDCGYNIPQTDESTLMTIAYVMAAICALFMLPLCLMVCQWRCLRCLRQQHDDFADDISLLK

System in one data set: not listed separately
In words: Brain and plasma exposure in rats after oral dosing (DMPK analysis). The format is in vivo. To be noted: male, Sprague Dawley, 30 mg/kg p.o., 3 hours post dose, rat, read-out: Brain/Plasma ratio. As for the experimental part:
(§1) Young adult Male Sprague Dawley rats of approximately 250 g weight were purchased from Charles River and received 0-30 mg/kg of vehicle (10% HP betaCD+1M MeSO4, pH 2.5) or test compounds (dissolved in vehicle) only by oral gavage (p.o). The compounds are dosed at a volume of 5 ml/kg. Cohorts of 5-10 animals were established for each treatment condition.
(§2) At T=180 minutes after initial dosing the animals were stunned and decapitated with a guillotine. Trunk-blood was sampled in EDTA coated tubes after decapitation of the animal. The blood was centrifuged at 2200 G at 4° C. for 15 minutes and the plasma was collected and frozen at −80° C. The blood was aliquoted for Aβ ELISA and DMPK analysis Immediately following sacrifice, the brain was extracted and split into 2 halves. The right hemibrains were snap frozen on dry ice and stored at −80° C. The left half was dissected; with the front forebrain taken for Aβ ELISA and the remainder used for DMPK analysis. These samples were also snap frozen on dry ice and stored at −80° C. until use for analysis.
Compounds 1, 5, 17, 18, and 24 were administered at doses of 10 or 30 mg/kg p.o. and brain and plasma samples were collected at 3 hours post dose and the following exposures and reductions in Aβ40 levels were measured as described above.
`C[C@]1(F)CC(F)(F)[C@@](C)(c2cc(NC(=O)c3ccc(F)cn3)ccc2F)N=C1N` [Compound 1, N-(3-((2R,5S)-6-amino-3,3,5-trifluoro-2,5-dimethyl-2,3,4,5-tetrahydropyridin-2-yl)-4-fluorophenyl)-5-fluoropicolinamide]: the Kp at 3 h was 0.62.

Another data set concerns the target human BACE1 (Homo sapiens (Human), UniProt P56817). In words: BACE1 binding assay (SPA-based, radioligand displacement). To be noted: pH 4.5, Ki calculated from IC50. As for the experimental part:
The binding assay was performed as SPA-based assay using a biotinylated form of human BACE1 recombinantly expressed and subsequently purified from Freestyle HEK293 cells. The binding assay was run in a 50 mM sodium acetate buffer, pH 4.5 containing 50 mM NaCl and 0.03% Tween-20 in white clear bottom 384 plates (Corning #3653). 10 nM (final concentration) radioligand ([^3H]—N-((1S,2R)-1-benzyl-3-cyclopropylamino-2-hydroxy-propyl)-5-(methanesulfonyl-methyl-amino)-N—((R)-1-phenyl-ethyl)-isophthalamide) (TRQ11569 purchased from GE Healthcare) was mixed with test compound at a given concentration, 6 nM (final concentration) human BACE1 and 25 μg Streptavidin coated PVT core SPA beads (RPNQ0007, GE Healthcare Life Sciences) in a total volume of 40 μl. Several concentrations of each test compound were tested in the assay for IC50 determination. The plates were incubated for one hour at room temperature and counted in a Wallac Trilux counter. Total and non-specific binding were determined using buffer and 1 μM (final concentration) of the high affinity BACE1 reference inhibitor (S)-6-[3-chloro-5-(5-prop-1-ynyl-pyridin-3-yl)-thiophen-2-yl]-2-imino-3,6-dimethyl-tetrahydro-pyrimidin-4-one, respectively. For each test compound, a IC50 value (the concentration mediating 50% inhibition of the specific binding of the radioligand) was determined from concentration-response curve and used to calculate the Ki from the equation Ki=IC50/(1+L/Kd), where L and Kd are the final concentration of the radioligand used in the assay and the dissociation constant of the radioligand, respectively. The Kd of the radioligand was determined from saturation binding experiments.
For the molecule `C[C@]1(F)CC(F)(F)[C@@](C)(c2cc(NC(=O)c3ccc(F)cn3)ccc2F)N=C1N` [Compound 1, N-(3-((2R,5S)-6-amino-3,3,5-trifluoro-2,5-dimethyl-2,3,4,5-tetrahydropyridin-2-yl)-4-fluorophenyl)-5-fluoropicolinamide], the inhibitory constant (Ki) is 0.083 µM. Same read-out and setting: with `C[C@]1(F)CC(F)(F)[C@@](C)(c2cc(NC(=O)c3ccn(C(F)F)n3)ccc2F)N=C1N` [Compound 6, N-(3-((2R,5S)-6-amino-3,3,5-trifluoro-2,5-dimethyl-2,3,4,5-tetrahydropyridin-2-yl)-4-fluorophenyl)-1-(difluoromethyl)-1H-pyrazole-3-carboxamide] the figure was 0.019 µM; with `Cc1nc(C(=O)Nc2ccc(F)c([C@@]3(C)N=C(N)[C@](C)(F)CC3(F)F)c2)co1` [Compound 34, N-(3-((2R,5R)-6-amino-3,3,5-trifluoro-2,5-dimethyl-2,3,4,5-tetrahydropyridin-2-yl)-4-fluorophenyl)-2-methyloxazole-4-carboxamide], 0.21 µM; with `Cc1nnc(C(=O)Nc2ccc(F)c([C@@]3(C)N=C(N)[C@@](C)(F)CC3(F)F)c2)o1` [Compound 20, N-(3-((2R,5S)-6-amino-3,3,5-trifluoro-2,5-dimethyl-2,3,4,5-tetrahydropyridin-2-yl)-4-fluorophenyl)-5-methyl-1,3,4-oxadiazole-2-carboxamide], 1.6 µM. Same read-out and setting: under `Cc1nc(C(=O)Nc2ccc(F)c([C@@]3(C)N=C(N)[C@@](C)(F)CC3(F)F)c2)c(C)o1` [Compound 47, N-(3-((2R,5S)-6-amino-3,3,5-trifluoro-2,5-dimethyl-2,3,4,5-tetrahydropyridin-2-yl)-4 fluorophenyl)-2,5-dimethyloxazole-4-carboxamide] stands 0.065 µM; under `COc1cnc(C(=O)Nc2ccc(F)c([C@@]3(C)N=C(N)[C@@](C)(F)CC3(F)F)c2)c(C)n1` [Compound 19, N-(3-((2R,5S)-6-amino-3,3,5-trifluoro-2,5-dimethyl-2,3,4,5-tetrahydropyridin-2-yl)-4-fluorophenyl)-5-methoxy-3-methylpyrazine-2-carboxamide], 0.032 µM. In the case of `Cn1ccc(C(=O)Nc2ccc(F)c([C@@]3(C)N=C(N)[C@](C)(F)CC3(F)F)c2)n1` [Compound 39, N-(3-((2R,5R)-6-amino-3,3,5-trifluoro-2,5-dimethyl-2,3,4,5-tetrahydropyridin-2-yl)-4-fluorophenyl)-1-methyl-1H-pyrazole-3-carboxamide], the Ki is 4.8 µM.

With `C[C@]1(F)CC(F)(F)[C@@](C)(c2cc(NC(=O)c3nc(CF)cs3)ccc2F)N=C1N` [Compound 15, N-(3-((2R,5S)-6-amino-3,3,5-trifluoro-2,5-dimethyl-2,3,4,5-tetrahydropyridin-2-yl)-4-fluorophenyl)-4-(fluoromethyl)thiazole-2-carboxamide], the inhibition constant (Ki) was 0.046 µM.

Regarding `[2H]C([2H])([2H])Oc1ccc(C(=O)Nc2ccc(F)c([C@@]3(C)N=C(N)[C@](C)(F)CC3(F)F)c2)nc1` [Compound 43, N-(3-((2R,5R)-6-amino-3,3,5-trifluoro-2,5-dimethyl-2,3,4,5-tetrahydropyridin-2-yl)-4-fluorophenyl)-5-(methoxy-d3)picolinamide], the Ki was 0.091 µM.

With `Cc1noc(C(=O)Nc2ccc(F)c([C@@]3(C)N=C(N)[C@@](C)(F)CC3(F)F)c2)n1` [Compound 21, N-(3-((2R,5S)-6-amino-3,3,5-trifluoro-2,5-dimethyl-2,3,4,5-tetrahydropyridin-2-yl)-4-fluorophenyl)-3-methyl-1,2,4-oxadiazole-5-carboxamide], the Ki is 0.058 µM.

Regarding `C[C@@]1(F)CC(F)(F)[C@@](C)(c2cc(NC(=O)c3ccc(Cl)cc3)ccc2F)N=C1N` [Compound 44, N-(3-((2R,5R)-6-amino-3,3,5-trifluoro-2,5-dimethyl-2,3,4,5-tetrahydropyridin-2-yl)-4-fluorophenyl)-4-chlorobenzamide], the Ki was 0.74 µM. Take `C[C@@]1(F)CC(F)(F)[C@@](C)(c2cc(NC(=O)c3nc(CF)co3)ccc2F)N=C1N` [Compound 30, N-(3-((2R,5R)-6-amino-3,3,5-trifluoro-2,5-dimethyl-2,3,4,5-tetrahydropyridin-2-yl)-4-fluorophenyl)-4-(fluoromethyl)oxazole-2-carboxamide]: the Ki was 0.26 µM. For `COc1cnc(C(=O)Nc2ccc(F)c([C@@]3(C)N=C(N)[C@](C)(F)CC3(F)F)c2)nc1` [Compound 26, N-(3-((2R,5R)-6-amino-3,3,5-trifluoro-2,5-dimethyl-2,3,4,5-tetrahydropyridin-2-yl)-4-fluorophenyl)-5-methoxypyrimidine-2-carboxamide], the Ki was 0.13 µM. The same measure, in the same setting: with `COc1cnc(C(=O)Nc2ccc(F)c([C@@]3(C)N=C(N)[C@@](C)(F)CC3(F)F)c2)nc1` [Compound 12, N-(3-((2R,5S)-6-amino-3,3,5-trifluoro-2,5-dimethyl-2,3,4,5-tetrahydropyridin-2-yl)-4-fluorophenyl)-5-methoxypyrimidine-2-carboxamide] the figure was 0.029 µM; with `Cn1cnc(C(=O)Nc2ccc(F)c([C@@]3(C)N=C(N)[C@@](C)(F)CC3(F)F)c2)n1` [Compound 22, N-(3-((2R,5S)-6-amino-3,3,5-trifluoro-2,5-dimethyl-2,3,4,5-tetrahydropyridin-2-yl)-4-fluorophenyl)-1-methyl-1H-1,2,4-triazole-3-carboxamide], 0.11 µM; with `C[C@@]1(F)CC(F)(F)[C@@](C)(c2cc(NC(=O)c3ccc(C(F)(F)F)cn3)ccc2F)N=C1N` [Compound 28, N-(3-((2R,5R)-6-amino-3,3,5-trifluoro-2,5-dimethyl-2,3,4,5-tetrahydropyridin-2-yl)-4-fluorophenyl)-5-(trifluoromethyl)picolinamide], 0.17 µM. In the case of `Cc1cc(C(=O)Nc2ccc(F)c([C@@]3(C)N=C(N)[C@](C)(F)CC3(F)F)c2)on1` [Compound 40, N-(3-((2R,5R)-6-amino-3,3,5-trifluoro-2,5-dimethyl-2,3,4,5-tetrahydropyridin-2-yl)-4-fluorophenyl)-3-methylisoxazole-5-carboxamide], the Ki is 8.2 µM.

In a further data set the test system is Aβ40. The data set is described as follows: Assessment of Aβ40 levels in rat brain and plasma following BACE1 inhibition (ELISA). Type of data set: in vivo. To be noted: 30 mg/kg p.o., 3 hours post dose, brain, vs vehicle. As for the experimental part:
as §1, §2
The cortex samples were thawed slightly on wet ice before they were homogenized with a small volume dispersing instrument (T10 basic ULTRA-TURRAX®) which was set at speed 5 for approximately 5-7 sec. The tissue was processed in a 10 times volume of the weight, for example 100 mg of tissue was homogenized in 1000 μL of Homogenization buffer. Homogenization buffer: 50 ml Milli Q water+[…]+0.2% Diethylamin (DEA)+1 tablet of Complete Protease inhibitor cocktail+1 nM 4-(2-aminoethyl)benzenesulfonyl fluoride hydrochloride irreversible serine protease inhibitor (AEBSF).
After homogenization 450 μL aliquots of the samples are collected into a 1.5 ml Eppendorf tube and placed on wet ice, 0.5% NP-40 (50 ul) was added to all samples and then they were incubated on ice for 30 min. After which all samples were sonicated using an Ultrasonic homogenizer with 20 kHz homogeneous sound (SONOPLUS HD2070, Bandelin Electronic) 10 pulse set at 12-13% power to extract all the Aβ species. The samples were then centrifuged (Ole Dich 157 MPRF Micro centrifuge) at 20000 G for 20 minutes at 4° C. After centrifugation 285 μL of the supernatant was pipetted into 600 μL microtubes tubes and neutralized with 15 μL of 1M Tris-HCL buffer.
WAKO 294-62501 Human/Rat Abeta amyloid (40) kit was used for all ELISA analyses. 30 μL plasma samples or 30 μL of the cortex supernatants generated as described above were placed in 600 μL microtubes tubes on wet ice. To this 30 μL of 8M Urea (AppliChem A1049, 9025) are added to generate a 2-fold dilution. Both plasma and cortex supernatants are incubated on ice for 30 min. Standard rows were prepared from the standard peptide stock provided in the kit and standard diluent containing 1.6M Urea (200 μL 8M Urea+800 μL of standard diluent) and 0.8M Urea (400 μL 8M Urea+3600 μL Standard diluent). A serial 2-fold dilution of Aβ40 from 100 pmol/ml to 0 pmol/L was prepared for the assay.
After incubation with urea, all samples were further diluted by addition of 5 times standard diluent from the Kit. This was done by adding 240 μL Standard Diluent to 60 μL sample/urea mixture, which was then mixed well. 100 μL of each diluted sample was pipetted into designated wells of the ELISA plate in duplicates. The plate was then covered and incubated overnight at 4° C. The following day, the ELISA kit was brought to room temperature before use. The incubated plate was washed 5 times with the 20× washing solution diluted in Milli Q water. 100 μL HRP-conjugate was applied to each well, and the plate was covered and incubates at 4° C. for 1 hr. The wash was repeated again for 5 times. 100 μL 3,3′,5,5′-Tetramethylbenzidine (TMB) solution was applied to each well and the plate was covered and incubated in the dark at room temperature for 30 minutes. […]
For orientation: ELISA stands for enzyme-linked immunosorbent assay.
For `C[C@]1(F)CC(F)(F)[C@@](C)(c2cc(NC(=O)c3ccc(F)cn3)ccc2F)N=C1N` [Compound 1, N-(3-((2R,5S)-6-amino-3,3,5-trifluoro-2,5-dimethyl-2,3,4,5-tetrahydropyridin-2-yl)-4-fluorophenyl)-5-fluoropicolinamide], the “Aβ40 reduction, Brain Rat” value is on record as 56%.

Staying with this data set, now noted: 30 mg/kg p.o., 3 hours post dose, plasma, vs vehicle.
Take `C[C@]1(F)CC(F)(F)[C@@](C)(c2cc(NC(=O)c3ccc(F)cn3)ccc2F)N=C1N` [Compound 1, N-(3-((2R,5S)-6-amino-3,3,5-trifluoro-2,5-dimethyl-2,3,4,5-tetrahydropyridin-2-yl)-4-fluorophenyl)-5-fluoropicolinamide]: the “Aβ40 reduction, Plasma Rat” value worked out at 41%.

For orientation: Ki means the dissociation constant of the complex between target and ligand, obtained from inhibition or displacement.
